A short description of data set [1]: Rat pharmacokinetics (PK). The data set is classed as in vivo. The settings on record: IV group and PO group, route of the Cmax not given, urea versus corresponding amide. As to the method: Rat PK experiments were performed with an IV group and PO group included, with 3 rats per group. The formulation was solution for IV group and either solution or suspension formulation for the oral group(s). Plasma samples were harvested with K2EDTA as anticoagulant at 0.08, 0.25, 0.5, 1, 2, 4, 8, 12 and 24 hours for the IV group and at 0.25, 0.5, 1, 2, 4, 6, 8, 12 and 24 hours for the PO group, and analyzed by fit for purpose LC-MS/MS method. Non-compartmental analysis module in Phoenix WinNonlin® (Version 8.0) was used to assess the pharmacokinetic parameters. Maximum concentration (Cmax) were taken from the observed values.

The nature of data set [2]: Hepatocyte stability. The data set is classed as in vitro ADME, human. The note with it: human; Table 3 of Example 15: 1 μM test compound, 0.5 million cells/mL hepatocytes, 37° C. The protocol: Metabolic stability of compounds can be evaluated using human, rat, mouse, or other animal hepatocytes to predict intrinsic clearance. Human LiverPool™ 20-donor and animal cryopreserved hepatocytes were obtained from BioreclamationIVT.
Cryopreserved hepatocytes were removed from a liquid nitrogen tank and thawed in a 37° C. water bath. As soon as the cells pull away from the vial wall, they were decanted into 48 mL of warm HT medium. Cells were centrifuged for four minutes at 420 rpm (50 g). After removing the supernatant, the pellet was re-suspended in warm DMEM medium. Cell density was counted by a hemacytometer.
The assay was carried out in 96-well microtiter plates. Compound 5 was incubated for 0, 60, 120, and 180 minutes at 37° C. with hepatocytes. Reaction mixtures (50 μL) contain a final concentration of 1 μM test compound, 0.5 million cells/mL hepatocytes in the DMEM medium. At each of the time points (for example, 0, 1, 2, and 3 hours), 200 μL of quench solution (100% acetonitrile with 0.1% formic acid) with internal standard was transferred to each well. Midazolam was included as a positive control to verify assay performance. Plates were sealed and centrifuged at 4° C. for 15 minutes at 4000 rpm. The supernatant was transferred to fresh plates for LC/MS/MS analysis.
All samples were analyzed on LC/MS/MS using an AB Sciex API 4000 instrument, coupled to a Shimadzu LC-20AD LC Pump system. Analytical samples were separated using a Waters Atlantis T3 dC18 reverse phase HPLC column (20 mm×2.1 mm) at a flow rate of […]. The mobile phase consists of 0.1% formic acid in water (solvent A) and 0.1% formic acid in 100% acetonitrile (solvent B).
The extent of metabolism was calculated as the disappearance of the test compound, compared to the 0-min control reaction incubations. Initial rates are calculated for the compound concentration and used to determine t½ values and subsequently, the intrinsic clearance, CLint=(0.693)(1/t½ (min))(mL incubation/million cells).

Data set [3] is described as follows: Human liver microsome stability assay. Format: in vitro ADME. The settings on record: 0.5 mg/mL human liver microsomes, 37° C., pH 7.4; urea versus corresponding amide. As to the method:
The microsome stability assay was carried out in 96-well microtiter plates at 37° C. Reaction mixtures (25 μL) contained a final concentration of 1 µM test compound, 0.5 mg/mL human liver microsomes protein, and 1 mM NADPH and/or 1 mM UDPGA (with alamethicin) in 100 mM potassium phosphate, pH 7.4 buffer with 3 mM MgCl2. At each of the time points (for example, 0, 15, 30, and 60 minutes), 150 μL of quench solution (100% acetonitrile with 0.1% formic acid) with internal standard was transferred to each well. Besides the zero minute controls, mixtures containing the same components except the NADPH were also prepared as the negative control. Verapamil was included as a positive control to verify assay performance. Plates were sealed, vortexed, and centrifuged at 4° C. for 15 minutes at 4000 rpm. The supernatant was transferred to fresh plates for LC/MS/MS analysis. Comparison data for microsome stability of urea compounds described herein versus the corresponding amide compounds are shown in Table 1.

In data set [4] the test system is IFN-a/Jak1 Tyk2. The experiment in a line: Co-stimulation assay in lysed whole blood: IFNa (JAK1/TYK2) stimulated STAT1 phosphorylation. Format: cell-based. The note with it: 100 ng/mL IFNa (with 10 ng/mL GM-CSF), pSTAT by flow cytometry. In outline:
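Lysed human whole blood (RBC-lysed, resuspended in cRPMI) pre-incubated with compound 1 h at 37 °C, then stimulated 20 min with IFNa 100 ng/mL plus GM-CSF 10 ng/mL (final). Fixed, permeabilised, stained for pSTAT1 (PE) and pSTAT5 (AF488); flow cytometry read-out, ≥5,000–10,000 cells acquired.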
(A flow cytometer gives signals particle by particle.)

Where two headings read alike, the source gives them in different places.

Cmax, half-life and IC50 data for 31 compounds are collected here from patent US11753411B2, “Substituted pyrazolo[1,5-a]pyrimidines as TYK2 pseudokinase ligands” (Ventyx Biosciences, Inc., priority 2019, dated 2023).

A word on the Cmax: it is the highest concentration seen after dosing. In the case of `CNc1cc(Nc2cccc3c2OCCO3)nc2c(C(=O)NC3CC3)cnn12` [drawing 290, reference compound], the highest concentration (Cmax) in data set [1] (rat, plasma, read-out: Cmax) turned out to be 400 ng/mL. Broadly, the half-life is the time in which the quantity being followed falls by half. Read a low half-life as rapid decline. In turn, `CNc1cc(Nc2cc(F)cc3c2OCCO3)nc2c(C(=O)N[C@@H]3C[C@@H]3F)cnn12` [drawing 294, reference compound] registered a half-life at 1 μM in data set [2] of under 1.67 h. `CNc1cc(Nc2cccc3c2OCCO3)nc2c(C(=O)NC3CC(O)C3)cnn12` (stereo not shown) [reference compound]: the half-life in data set [3] is 0.3 h. As to `CNc1cc(Nc2cccc3c2OCCO3)nc2c(C(=O)N[C@@H]3C[C@@H]3F)cnn12` [reference compound], the Cmax in data set [1] (rat, plasma, read-out: Cmax) came to 400 ng/mL. For the compound `CNC(=O)c1cnn2c(NC)cc(Nc3cc(C)cc(C)c3)nc12` [reference compound], the Cmax in data set [1] (rat, plasma, read-out: Cmax) was determined as 200 ng/mL. In data set [3], `CNc1cc(Nc2cccc3c2OCCO3)nc2c(NC(=O)NC3CC3)cnn12` [drawing 277] yielded a half-life of over 2 h.

`CNc1cc(Nc2cc(F)cc3c2OCCO3)nc2c(C(=O)N[C@@H]3C[C@@H]3F)cnn12` [drawing 280, reference compound] yielded a half-life in data set [3] of 1 h. Turning to `CNc1cc(Nc2cccc3c2OCCO3)nc2c(C(=O)NC3CCC3)cnn12` [reference compound], the Cmax in data set [1] (rat, plasma, read-out: Cmax) turned out to be 1900 ng/mL. On to `CNC(=O)Nc1cnn2c(NC)cc(Nc3cc(C)cc(C)c3)nc12` [drawing 291], for which the Cmax in data set [1] (rat, plasma, read-out: Cmax) amounted to 915 ng/mL.

As for `CNc1cc(Nc2cccc3c2OCCO3)nc2c(NC(=O)NC3CCC3)cnn12` [drawing 289], in data set [1] (rat plasma), the Cmax is listed as 1,800 ng/mL.

`CNc1cc(Nc2cccc3c2OCCO3)nc2c(C(=O)NC3CC3)cnn12` [drawing 278, reference compound] returned a half-life in data set [3] of 0.317 h. Still for that read-out and setting: with `CNC(=O)Nc1cnn2c(NC)cc(Nc3cc(F)cc4c3OCCO4)nc12` [drawing 283] the figure was over 2 h; with `CNc1cc(Nc2cccc3c2OCCO3)nc2c(NC(=O)NC3CC(O)C3)cnn12` (stereo not shown) [drawing 281], over 2 h. Same read-out and setting: with `CNc1cc(Nc2cc(F)cc3c2OCCO3)nc2c(NC(=O)N[C@@H]3C[C@@H]3F)cnn12` [drawing 279] the figure was over 2 h. As for `CNc1cc(Nc2cccc3c2OCCO3)nc2c(NC(=O)NC3CCC3)cnn12` [drawing 287], in data set [1] (rat plasma), the Cmax is 5,000 ng/mL. As for `CNc1cc(Nc2cccc3c2OCCO3)nc2c(NC(=O)N[C@@H]3C[C@@H]3F)cnn12` [drawing 285], in data set [1] (rat, plasma, read-out: Cmax), the Cmax is 1690 ng/mL.

As usually defined, the IC50 is the concentration that inhibits the measured activity by half. In data set [4] (Homo sapiens, 20 min), `CNC(=O)Nc1cnn2c(NC)cc(Nc3ccccc3S(C)(=O)=O)nc12` [Compound 156, 1-methyl-3-(7-(methylamino)-5-((2-(methylsulfonyl)phenyl)amino)py-razolo[1,5-a]pyrimidin-3-yl)urea] gave an IC50 of at least 10 µM. Same read-out and setting: under `CNc1cc(Nc2cccc3c2OCCO3)nc2c(NC(=O)N[C@@H](C)C#N)cnn12` [Compound 121, (S)-1-(1-cyanoethyl)-3-(5-((2,3-dihydrobenzo[b][1,4]dioxin-5-yl)amino)-7-(methylamino)pyrazolo[1,5-a]pyrimidin-3-yl)urea] stands under 1 µM; under `C#CCNC(=O)Nc1cnn2c(NC)cc(Nc3cc(F)cc4c3OCCO4)nc12` [Compound 111, 1-(5-((7-fluoro-2,3-dihydrobenzo[b][1,4]dioxin-5-yl)amino)-7-(methylamino)pyrazolo[1,5-a]pyrimidin-3-yl)-3-(prop-2-yn-1-yl)urea], under 1 µM. `CNc1cc(Nc2c(F)ccc3c2OCCO3)nc2c(NC(=O)NCC#N)cnn12` [Compound 136, 1-(cyanomethyl)-3-(5-((6-fluoro-2,3-dihydrobenzo[b][1,4]dioxin-5-yl)amino)-7-(methylamino)pyrazolo[1,5-a]pyrimidin-3-yl)urea] came in with a 50% inhibitory concentration (IC50) in data set [4] (lysed human whole blood, 20 minutes) of 1 to 10 µM. `CNc1cc(Nc2cccc3c2OCCO3)nc2c(NC(=O)NCCC(F)F)cnn12` [Compound 179, 1-(3,3-difluoropropyl)-3-(5-((2,3-dihydrobenzo[b][1,4]dioxin-5-yl)amino)-7-(methylamino)pyrazolo[1,5-a]pyrimidin-3-yl)urea]: in data set [4] (Homo sapiens, 20 min), the concentration for half-maximal inhibition (IC50) is under 1 µM. Take `CNc1cc(Nc2cc(F)cc3c2OCCO3)nc2c(NC(=O)N[C@@H]3C[C@@H]3F)cnn12` [drawing 293]: the half-life at 1 μM in data set [2] was over 6 h. Compound `CNC(=O)c1cnn2c(NC)cc(Nc3cc(F)cc4c3OCCO4)nc12` [reference compound] returned a half-life in data set [3] of under 0.833 h. In data set [4] (Homo sapiens, 20 min), `CNC(=O)Nc1cnn2c(NC)cc(NC(=O)c3ccccc3)nc12` [Compound 167, N-(7-(methylamino)-3-(3-methylureido)pyrazolo[1,5-a]pyrimidin-5-yl)benzamide] registered an IC50 of 1 to 10 µM.

Regarding `CNc1cc(Nc2cccc3c2OCCO3)nc2c(NC(=O)N[C@@H]3C[C@@H]3F)cnn12` [Compound 26, 1-(5-((2,3-dihydrobenzo[b][1,4]dioxin-5-yl)amino)-7-(methylamino)pyrazolo[1,5-a]pyrimidin-3-yl)-3-((1R,2S)-2-fluorocyclopropyl)urea], the IC50 in data set [4] (Homo sapiens, 20 min) was under 1 µM.

`CNc1cc(Nc2cc(C#N)cc3c2OCCO3)nc2c(NC(=O)NC3CC3)cnn12` [Compound 89, 1-(5-((7-cyano-2,3-dihydrobenzo[b][1,4]dioxin-5-yl)amino)-7-(methylamino)pyrazolo[1,5-a]pyrimidin-3-yl)-3-cyclopropylurea]: in data set [4] (Homo sapiens, 20 min), the IC50 was under 1 µM. On the same count and under the same terms, with `CNc1cc(Nc2cccc3c2OCCO3)nc2c(NC(=O)NCC3CC3)cnn12` [Compound 103, 1-(cyclopropylmethyl)-3-(5-((2,3-dihydrobenzo[b][1,4]dioxin-5-yl)amino)-7-(methylamino)pyrazolo[1,5-a]pyrimidin-3-yl)urea] the figure was 1 to 10 µM; with `CNc1cc(Nc2cccc3c2OCCO3)nc2c(NC(=O)NC3CCCC3)cnn12` [Compound 108, 1-cyclopentyl-3-(5-((2,3-dihydrobenzo[b][1,4]dioxin-5-yl)amino)-7-(methylamino)pyrazolo[1,5-a]pyrimidin-3-yl)urea], under 1 µM; with `CNC(=O)Nc1cnn2c(NC)cc(-c3cn(C)c4ncccc34)nc12` [Compound 74, 1-methyl-3-(5-(1-methyl-1H-pyrrolo[2,3-b]pyridin-3-yl)-7-(methylamino)pyrazolo[1,5-a]pyrimidin-3-yl)urea], 1 to 10 µM.

`CNC(=O)Nc1cnn2c(NC)cc(Nc3cc(C(F)(F)F)cc4c3OCCO4)nc12` [Compound 76, 1-methyl-3-(7-(methylamino)-5-((7-(trifluoromethyl)-2,3-dihydrobenzo[b][1,4]dioxin-5-yl)amino)pyrazolo[1,5-a]pyrimidin-3-yl)urea] displayed a concentration for half-maximal inhibition (IC50) in data set [4] (Homo sapiens, 20 min) of under 1 µM. The same measure, in the same setting: under `CNc1cc(Nc2cccc3c2OCCO3)nc2c(NC(=O)N[C@@H]3C[C@@H]3C#N)cnn12` [Compound 45, 1-((1R,2S)-2-cyanocyclopropyl)-3-(5-((2,3-dihydrobenzo[b][1,4]dioxin-5-yl)amino)-7-(methylamino)pyrazolo[1,5-a]pyrimidin-3-yl)urea] stands under 1 µM.
